Format in all cases: cell-based
Assay [1] has as its system transcription factor TEAD. Kind of assay: Activity inhibition test of transcription factor TEAD (ONE-Glo luciferase assay, Hippo Pathway TEAD reporter-MCF7 cell line). To be noted: Homo sapiens; TEAD Reporter-MCF7 cells, 24 hours treatment, luciferase luminescence. The protocol:
The transcription factor TEAD activity of the compounds prepared in Examples was measured by the ONE-Glo™ Luciferase assay (Promega, Catalog #E6110) method using the Hippo Pathway TEAD reporter-MCF7 recombinant cell line (BPS Bioscience, Catalog #60618).
Specifically, the TEAD Reporter-MCF7 cell line contains the firefly luciferase gene whose expression is regulated under the control of TEAD response elements in the MCF7, which is a human breast cancer cell line. In the cell line, a non-phosphorylated YAP/TAZ exists in the nucleus in a non-stressed condition, which continuously induces expression of the luciferase reporter.
TEAD Reporter-MCF7 cells were prepared in 100 μL of cell culture medium (MEM medium, 10% FBS, 1% P/S, 400 μg/mL Geneticin, 1% […], 1 mM NA pyruvate, 10 μg/mL Insulin) in a white clear bottom 96-well microplate. The prepared plate was incubated in a 5% CO2 incubator at 37° C. for 24 hours, and then the previously prepared compounds of Examples were finally treated at concentrations of 0.0005, 0.005, 0.05, 0.5 and 5 μM, which were repeated three times for all treatment solutions. The plates treated with the compounds of Examples were incubated in a 5% CO2 incubator at 37° C. for 24 hours. 100 μL/well of the substrate aqueous solution containing luciferin was added to a white clear-bottom 96 well microplate, thereby initiating an enzyme reaction. The reaction was performed at room temperature for 5 minutes, and the luminescence (integration time 1000 ms) was measured using a Flexstation3 multi-mode microplate reader. In accordance with the instructions for the ONE-Glo™ Luciferase Assay, the luciferase enzyme activity, which represents the activity of the transcription factor TEAD, was measured by a chemiluminescence method, and the inhibitory activity of the compound according to the present disclosure was calculated. The results of each compound were analyzed using Microsoft Excel, and the IC50 values were calculated by GraphPad Prism software.

In the next assay the test system is NCI-H226 cells. Kind of assay: Cell growth inhibition test (CellTiter-Glo), NCI-H226. Conditions: Homo sapiens, NCI-H226 cell line. The protocol: (§1) The cell growth for the compounds prepared in Examples was measured by CellTiter-Glo® Luminescednt Cell Viability (Promega, Catalog #G7571) method using NCI-H226 (addexbio), NCI-H28 (Korea Cell Line Bank) cell lines. This evaluation method is a method in which when luciferase enzyme is activated by ATP flowing out from living cells, it reacts with a luciferin substrate, and the enzyme activity at this time is measured to confirm cell viability.
(§2) Specifically, NCI-H226, and NCI-H28 cells were prepared in 100 μL of cell culture medium (RPMI medium, 10% FBS, 1% P/S, 4.5 g/L D-Glucose, 2.383 g/L HEPES Buffer, L-Glutamine, 1.5 g/L Sodium Bicarbonate, 110 mg/L Sodium pyruvate) in a white clear bottom 96-well microplate. The prepared plate was incubated in a 5% CO2 incubator at 37° C. for 24 hours, and then the previously prepared compounds of Examples were finally treated at concentrations of 0.0005, 0.005, 0.05, 0.5 and 5 μM, which was repeated three times for all treatment solutions.
(§3) The plates treated with the compounds of Examples were incubated in a 5% CO2 incubator at 37° C. 100 μL/well of the substrate aqueous solution containing luciferin was added to a white clear-bottom 96 well microplate, thereby initiating an enzyme reaction. The reaction was performed at room temperature in the dark for 10 minutes, and the luminescence was measured using a Flexstation3 multi-mode microplate reader. In accordance with the instructions for the CellTiter-Glo™ Luminescednt Cell Viability, the luciferase enzyme activity, which represents the amount of ATP, was measured by a chemiluminescence method, and the inhibitory activity of the compounds according to the present disclosure was calculated. The results of each compound were analyzed using Microsoft Excel, and the IC50 values were calculated using GraphPad Prism software.

A further assay has as its system NCI-H28 cells. Briefly: Cell growth inhibition test (CellTiter-Glo), NCI-H28. To be noted: Homo sapiens, NCI-H28 cell line. The protocol:
as §1, §2, §3
In general terms: Cellular ATP, detected with luciferase, serves as a proxy for viable cell number.

pIC50: −log10 of the molar value. Some results are limits rather than exact numbers.

Broadly, the pIC50 is −log10 of the IC50, conventionally taken in molar units. Lower therefore signals a high IC50. For the compound `C=CC(=O)Nc1cc(-c2cn(C)cn2)c2[nH]c(-c3cccc(F)c3)cc2c1` [Example 42, N-(2-(3-fluorophenyl)-7-(1-methyl-1H-imidazol-4-yl)-1H-indol-5-yl)acrylamide], the pIC50 was 7.01 in assay [1], 8.35 in the assay with NCI-H226 cells and 5.68 in the assay on NCI-H28 cells.

For `Cn1cnc(-c2cc(C(=O)O)cc3cc(-c4ccc(F)c(F)c4)[nH]c23)c1` [Example 43, 2-(3,4-difluorophenyl)-7-(1-methyl-1H-imidazol-4-yl)-1H-indole-5-carboxylic acid], the pIC50 in assay [1] is 7.27; in the assay with NCI-H226 cells, 8.11; in the assay with NCI-H28 cells, less than 5.30.

For the compound `C=CC(=O)Nc1cc(-c2cn(C)cn2)c2[nH]c(-c3ccc(F)c(Cl)c3)cc2c1` [Example 44, N-(2-(3-chloro-4-fluorophenyl)-7-(1-methyl-1H-imidazol-4-yl)-1H-indol-5-yl)acrylamide], the negative logarithm of the IC50 (pIC50) is 7.43 in assay [1], 7.66 in the assay with NCI-H226 cells and 5.72 in the assay on NCI-H28 cells.

As for `C=CC(=O)Nc1cc(-c2cn(C)cn2)c2[nH]c(-c3cc(F)c(Cl)c(F)c3)cc2c1` [Example 46, N-(2-(4-chloro-3,5-difluorophenyl)-7-(1-methyl-1H-imidazol-4-yl)-1H-indol-5-yl)acrylamide], the pIC50 in assay [1] is 7.05; in the assay with NCI-H226 cells, 7.10; in the assay on NCI-H28 cells, 5.87.

In the case of `C=CC(=O)Nc1cc(-c2cn(CC)cn2)c2[nH]c(-c3cc(F)c(F)c(F)c3)cc2c1` [Example 50, N-(7-(1-ethyl-1H-imidazol-4-yl)-2-(3,4,5-trifluorophenyl)-1H-indol-5-yl)acrylamide], the pIC50 is 7.57 in assay [1], 7.81 in the assay with NCI-H226 cells and less than 5.30 in the assay on NCI-H28 cells.

Take `C=CC(=O)Nc1cc(-c2cn(CC)cn2)c2[nH]c(-c3ccc(F)cc3)cc2c1` [Example 51, N-(7-(1-ethyl-1H-imidazol-4-yl)-2-(4-fluorophenyl)-1H-indol-5-yl)acrylamide]: the pIC50 was 7.32 in assay [1], 8.12 in the assay on NCI-H226 cells and 5.60 in the assay on NCI-H28 cells.

Take `C=CC(=O)Nc1cc(-c2cn(C)cn2)c2[nH]c(-c3ccc(Br)cc3)cc2c1` [Example 52, N-(2-(4-bromophenyl)-7-(1-methyl-1H-imidazol-4-yl)-1H-indole-5-yl)acrylamide]: the pIC50 is 6.46 in assay [1], 7.24 in the assay with NCI-H226 cells and 6.06 in the assay with NCI-H28 cells.

(Values after patent US20260242360A1, “Novel Compound, and Pharmaceutical Composition for Prevention or Treatment of Cancer or Tumors Comprising Same” (Daewoong Pharmaceutical Co., Ltd., priority 2023, published 2026).)
